# Source: patent US11369616B2, “Drug combination and its use in therapy” (Proximagen, LLC, priority 2016, dated 2022)
# Key:
# Format in all cases: in vivo, mice
# EMT6 = experiment: Syngeneic subcutaneous tumour growth inhibition, EMT6 (Study 2); settings: Breast, EMT6, SDF-1 42 FPKM; 641 50 mg/kg p.o. 5 days out of 7; anti-PD1 10 mg/kg i.p. twice weekly for 3 weeks; vs vehicle group
# Protocol: (§1) Four syngeneic cell lines (EMT-6, H22, CT26, B16F10small) were cultured and when in exponential growth were inoculated in mice subcutaneously with tumour cells in 0.1 mL of PBS for tumour development. After the mean tumour size reached approximately 80-120 mm^3 the mice were treated with anti-PD1 antibody (clone RMP1-14) (10 mg/kg i.p. twice weekly for 3 weeks) or 6-{4-[1-(Propan-2-yl)piperidin-4-yl]-1,4-diazepan-1-yl}-N-(pyridin-4-yl)pyridine-2-carboxamide (50 mg/kg p.o. 5 days out of 7), or a combination of the two treatments. Tumour volumes were measured twice weekly at least in two dimensions using a caliper, and the volume expressed in mm^3 using the formula: V=0.5 a×b^2 where a and b are the long and short diameters of the tumour, respectively. Tumour growth was measured and inhibition of tumour growth reported in comparison to a vehicle treated group. All groups contained 8 mice. If the tumours in a group reached an average volume of 2000 mm^3, the experiment was terminated.
# (§2) SDF-1 levels were measured by RNA sequencing and are expressed as fragments read per million mapped reads per kilobase of transcript (FPKM). FPKM is normalised to all the fragments read and to the length of the genes, and so is in effect a ratio of the number of SDF-1 reads to all the other genes read multiplied by one million.
# B16F10 small = experiment: Syngeneic subcutaneous tumour growth inhibition, B16F10 small (Study 2); settings: Melanoma, SDF-1 4 FPKM, 641 50 mg/kg p.o. 5 days out of 7, anti-PD1 10 mg/kg i.p. twice weekly for 3 weeks, vs vehicle group
# Protocol: as §1, §2
# H22 = experiment: Syngeneic subcutaneous tumour growth inhibition, H22 (Study 2); settings: Liver, H22, SDF-1 26 FPKM; 641 50 mg/kg p.o. 5 days out of 7; anti-PD1 10 mg/kg i.p. twice weekly for 3 weeks; vs vehicle group
# Protocol: as §1, §2
# CT26 = experiment: Syngeneic subcutaneous tumour growth inhibition, CT26 (Study 2); settings: Colorectal, CT26, SDF-1 17 FPKM; 641 50 mg/kg p.o. 5 days out of 7; anti-PD1 10 mg/kg i.p. twice weekly for 3 weeks; vs vehicle group
# Protocol: as §1, §2
compound,measurement,setting,value
"CC(C)N1CCC(N2CCCN(c3cccc(C(=O)Nc4ccncc4)n3)CC2)CC1 [compound 641, 6-{4-[1-(Propan-2-yl)piperidin-4-yl]-1,4-diazepan-1-yl}-N-(pyridin-4-yl)pyridine-2-carboxamide]",% inhibition of tumour growth relative to control,EMT6,79.8%
same,% inhibition of tumour growth relative to control,B16F10 small,0%
same,% inhibition of tumour growth relative to control,H22,20.1%
same,% inhibition of tumour growth relative to control,CT26,32.1%
